Measured values reported in article PMC11926788, “Effect of SSR504734, a Selective Glycine Transporter Type 1 Inhibitor, on Seizure Thresholds, Neurotransmitter Levels, and Inflammatory Markers in Mice” (ACS Chemical Neuroscience, 2025).
Read-outs that look alike come from different tables or passages of the source. Blank lines part the entries; values can stand above or below the molecule they belong to.

Tests used:
[1] = test system: tonic hindlimb extension in the MEST test in rats; settings: cited from earlier work
[2] = test system: GlyT1; settings: read-out: IC50 (competitive inhibitor of GlyT1); cited from earlier work
[3] = test system: i.v. PTZ-induced seizures; settings: cited from earlier work
[4] = molecular target: T1, rat GlyT1 (Rattus norvegicus, UniProt P28572); assay: GlyT1 radioligand binding ([3H]glycine, rat brain cortex, Eurofins Panlabs); settings: rat brain cortex; read-out: IC50 (reference GlyT1 inhibitor in this testing system)
T1 construct: tissue Eurofins Panlabs Discovery Services Taiwan, Ltd. (ran the assay); host or cells: Wistar rat brain cortex
T1 sequence (P28572 1-638): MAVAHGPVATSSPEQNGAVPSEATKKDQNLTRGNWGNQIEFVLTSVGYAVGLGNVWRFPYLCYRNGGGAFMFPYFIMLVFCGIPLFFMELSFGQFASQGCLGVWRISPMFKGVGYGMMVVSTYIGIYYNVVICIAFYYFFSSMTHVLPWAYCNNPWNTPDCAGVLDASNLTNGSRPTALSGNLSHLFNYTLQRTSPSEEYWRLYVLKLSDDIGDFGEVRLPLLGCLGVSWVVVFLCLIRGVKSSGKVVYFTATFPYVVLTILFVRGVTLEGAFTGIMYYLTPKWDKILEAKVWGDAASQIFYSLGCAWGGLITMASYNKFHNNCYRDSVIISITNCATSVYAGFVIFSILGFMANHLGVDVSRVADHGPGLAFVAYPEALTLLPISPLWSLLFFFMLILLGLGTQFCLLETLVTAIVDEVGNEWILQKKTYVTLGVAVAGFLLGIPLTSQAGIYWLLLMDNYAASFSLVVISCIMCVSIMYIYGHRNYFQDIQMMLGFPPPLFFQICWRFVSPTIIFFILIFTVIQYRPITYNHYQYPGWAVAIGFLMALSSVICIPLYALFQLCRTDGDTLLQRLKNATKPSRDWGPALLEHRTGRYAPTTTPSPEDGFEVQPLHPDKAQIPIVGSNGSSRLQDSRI

[5] = test system: tonic hindlimb extension in the MEST test in mice; settings: cited from earlier work; for effect on threshold for tonic hindlimb extension: MEST test in mice
[6] = PAMPA (Gentest Precoated PAMPA Plate System); format: in vitro ADME; settings: ± SD
Method: (§1) A series of in vitro ADME-Tox tests were performed for SSR504734 in order to estimate its drugability. The ADME-Tox parameters including permeability, plasma protein binding, metabolic stability, neurotoxicity, and hepatotoxicity were carried out as described previously.[31],[32] The ability of SSR504734 to penetrate through the biological membrane by passive diffusion was estimated by the Gentest Precoated PAMPA Plate System (Corning, Tewksbury, MA) and expressed as the permeability coefficient (Pe). The protein binding analysis was performed by using the commercial TRANSIL^XL PPB test, which mimics in vitro physiological plasma conditions where human serum albumin (HAS) and alpha-1-acid glycoprotein AGP are present in a 24:1 ratio. The human metabolism of SSR504734 was studied using human liver microsomes (HLMs) provided by Sigma-Aldrich. The hepatotoxicity and neurotoxicity were estimated in cellular models with the use of hepatoma HepG2 and neuroblastoma SH-SY5Y cell lines to perform the preliminary safety tests. The cells were incubated with SSR504734 at the concentration range of 0.1–100 μM. 1 μM cytostatic drug doxorubicin (DX) was used as the reference.

[7] = test system: tonic hindlimb extension in the MEST test in mice; assay: Maximal electroshock seizure threshold (MEST) test; format: in vivo; settings: 150 mg/kg i.p.
Method: A sinusoidal current alternation was delivered via saline-soaked transcorneal electrodes. Before stimulation, an ocular anesthetic (1% tetracaine hydrochloride solution obtained from Sigma-Aldrich, St. Louis, MO, USA) was administered to each eye of the mice. During stimulation, the mice were manually immobilized in a hand for 3–5 s and immediately relocated to a transparent box for behavioral observation after the stimulation. Hindlimb tonic extension was taken as an end point. Two experimental approaches were employed: (1) the maximal electroshock seizure threshold (MEST) test at varied current intensities and (2) the maximal electroshock (MES) test at a fixed current intensity.
In the MEST test, seizure thresholds were determined using the “up-and-down” method described by Kimball et al.[28] […] Each mouse was stimulated only once.

[8] = test system: i.v. PTZ-induced seizures in mice; assay: Intravenous (i.v.) PTZ seizure threshold test; format: in vivo; settings: VPA 150 mg/kg
Method: Mice were individually placed in a plastic restrainer (12 cm long, 3 cm inner diameter), and the lateral vein of each mouse was catheterized using a 27-gauge needle (Sterican, B. Braun Melsungen, Melsungen, Germany). The needle was attached by polyethylene tubing (PE20RW, Plastics One Inc., Roanoke, VA, USA) to a 10 mL plastic syringe containing 1% solution of PTZ in saline (Sigma-Aldrich, St. Louis, MO, USA) and mounted to a syringe pump (model Physio 22, Hugo Sachs Elektronik, Harvard Apparatus GmbH, March-Hugstetten, Germany). Piece of adhesive tape was used to secure the needle. The proper placement of the needle in the vein was verified by the appearance of blood in the tubing. During the test, mice were placed in a transparent box for observation. The PTZ solution was administered to freely moving mice at a constant rate of 0.2 mL/min. The time intervals from the initiation of PTZ infusion to the occurrence of the three following end points, i.e., (1) the first myoclonic twitch, (2) generalized clonic seizure with loss of righting reflex, and (3) forelimb tonus, were recorded. The PTZ infusion was terminated when tonic seizures, which were often fatal for the mice, began. All mice that survived were euthanized immediately. The thresholds were calculated separately for each end point using the following formula: threshold dose of PTZ (mg/kg) = infusion duration (s) × infusion rate (mL/s) × PTZ concentration (mg/mL)/body weight (kg). Seizure threshold was expressed as the amount of PTZ (mg/kg) ± SD (standard deviation) needed to produce the first observable sign of each end point. Each group consisted of 12–15 animals.

[9] = Grip strength test (neuromuscular strength); format: in vivo, mice; settings: 150 mg/kg i.p.
Method: The effect of SSR504734 on neuromuscular strength was determined using the grip-strength apparatus (BioSeb, Chaville, France). The apparatus consists of a steel wire grid of 8 × 8 cm, connected to an isometric force transducer. Each mouse was held by the tail, allowing it to grasp the grid with its forepaws only and steadily pulled back until it released the grid. The maximum grip strength value (in newtons; N) was measured three times for each animal. The mean force was normalized to body weight and expressed in mN/g ± SD for each experimental group. In order to minimize the number of animals used, a grip-strength test was carried out shortly before seizure tests.
(§2) Table S2. Time-course effect of SSR5504734 on neuromuscular strength and motor […]
(§3) Group Neuromuscular strength Impairment of motor
(§4) SSR504734 was dissolved in normal saline and injected i.p. at the dose of 30 mg/kg. Control animals received saline. The data are expressed as the mean ± SD of grip strengths measured in millinewtons per gram of mouse body weight (mN/g) from the grip-strength test assessing […]
(§5) coordination impairment in the chimney test. Each experimental group consisted of 12 animals. The grip-strength test results were analyzed using a one-way ANOVA with Dunnett’s post hoc test, while the data from the chimney test were statistically evaluated using Fisher’s exact probability test. *p<0.05 vs. control group.
(§6) Table S3. Effect of acute and 14-day treatment with SSR504734 on neuromuscular strength and motor coordination in mice
(§7) In acute studies, SSR504734 and sodium valproate (VPA; positive control) were injected i.p.
(§8) 60 and 15 min before the test, respectively. In subchronic studies, SSR504734 and VPA were injected i.p. every 24 h for 14 days. The last administration was made 60 and 15 min before the tests, respectively. Control animals received saline. Each experimental group consisted of 12 animals. The grip-strength test results were analyzed using a one-way ANOVA with […]
(§9) Fisher’s exact probability test.

[10] = test system: 6 Hz-induced psychomotor seizures in mice; assay: 6 Hz-induced psychomotor seizure threshold test; format: in vivo; settings: SSR504734 any of the doses tested, VPA 150 mg/kg
Method: Psychomotor seizures were induced through the application of rectangular pulses (0.2 ms width; 6 pulses per second) for 3 s using a Grass model CCU1 constant current unit coupled to a Grass S48 stimulator (Grass Technologies, Warwick, RI, USA). Stimuli were delivered via saline-soaked transcorneal electrodes. An ocular anesthetic (1% tetracaine hydrochloride) was administered on the animal’s corneas. Mice were restrained manually during stimulation and placed in transparent box immediately for behavioral observation. 6 Hz-induced seizures were characterized by head-nodding, chewing, eye-blinking, twitching of the vibrissae, rearing, stunned posture, forelimb clonus, and Straub tail. The absence of the described features or the return to normal exploratory behavior within 20 s poststimulation was considered as the absence of seizures. The 6 Hz seizure threshold test were conducted on groups of 20 animals stimulated with different current intensities by using the “up-and-down” method described by Kimball et al.[28]
The seizure threshold was quantified as the median current strength (CS50 value with confidence limits for 95% probability), predicting the induction of psychomotor seizures in 50% of the tested animals.

[11] = Chimney test (motor coordination); format: in vivo, mice; settings: 150 mg/kg i.p.
Method: The impact of SSR504734 on motor coordination in mice was evaluated by using the chimney test. Each animal was individually placed inside a transparent Plexiglas tube with an inner diameter of 3 cm and a length of 30 cm. The tube was horizontally positioned on a table and shifted vertically once the mouse reached the opposite end. Within a 60 s time frame, the mouse was required to climb backward to escape from the tube. In order to minimize the number of animals used, a chimney test was carried out shortly before seizure tests.
as §2, §3, §4, §5, §6, §7, §8, §9

[12] = test system: neuroblastoma SH-SY5Y cells; assay: Neurotoxicity, SH-SY5Y cell viability; format: cell-based; settings: Homo sapiens; SH-SY5Y, 72 h of incubation
Method: as §1
(§10) Figure 8 Effect of cytostatic drug doxorubicin (DX) and SSR504734 on (A) hepatoma HepG2 and (B) neuroblastoma SH-SY5Y cell lines viability after 72 h of incubation at 37 °C, 5% CO2. Data are expressed as means ± SD. Statistical analysis: ****p < 0.0001 vs negative control −1% DMSO in growth media (one-way ANOVA, followed by Dunnett’s post hoc test).
(§11) Figure S8. The effect of cytostatic drug doxorubicin and SSR504734 on (A) hepatoma
(§12) HepG2 and (B) neuroblastoma SH-SY5Y cell line viability after 72 h of incubation at 37 °C,
(§13) 5% CO2. The IC50 values were calculated by GraphPad Prism 8.0.
(§14) (1 picture or pasted object on this page, not shown here)

[13] = test system: hepatoma HepG2 cells; assay: Hepatotoxicity, HepG2 cell viability; format: cell-based
Method: as §1, §10, §11, §12, §13, §14

SMILES: CN(CCC(Oc1ccc(-c2ccccc2)cc1)c1ccc(F)cc1)CC(=O)O (stereo not drawn) [NFPS]
effect on threshold for tonic hindlimb extension [1]: strong, dose-dependent increase

IC50 [4]: 55.8 µM
SMILES: CNCC(=O)O [sarcosine]
IC50 [2]: 91 µM
effect in the i.v. PTZ test [3]: devoid of any effect
effect on threshold for tonic hindlimb extension [5]: increased the threshold
effect on threshold for tonic hindlimb extension ([5]; listed as Sarcosine): raised the threshold

SMILES: CN(CCOc1ccc(-c2ccc3c(c2)OCO3)cc1C(C)(C)C)CC(=O)O [LY2365109]
effect on seizure thresholds ([5]; MEST- and PTZ-induced seizure tests, mice): increased seizure thresholds

SMILES: COc1ccc2c(c1)CC[C@H](CN(C)CC(=O)O)[C@@H]2c1ccccc1 [Org25935]
effect on threshold for tonic hindlimb extension [1]: strong, dose-dependent increase

SMILES: Cn1c(=O)c2c(ncn2C)n(C)c1=O [caffeine]
Papp ([6]; PAMPA, read-out: PAMPA Pe): 7.77 ± 2.3 ×10⁻⁶ cm/s
PAMPA Pe [6]: 7.77 10^–6 cm/s

SMILES: Cc1cccc(C)c1C(=O)N[C@@H](c1ccccc1)C1(N(C)C)CCCC1 [GSK931145]
effect on threshold for tonic hindlimb extension [1]: strong, dose-dependent increase

Neuromuscular strength ([9]; 14-day treatment): 22.27 ± 4.84 mN/kg
Neuromuscular strength ([9]; acute treatment): 29.73 ± 4.60 mN/kg
Impairment of motor coordination ([11]; 14-day treatment): 0%
Impairment of motor coordination ([11]; acute treatment): 8.33%
SMILES: CCCC(CCC)C(=O)O [VPA, sodium valproate]
fold increase of seizure threshold ([7]; 14-day administration): 1.7 fold
fold increase of seizure threshold ([7]; single administration, 15 min before test): 1.8 fold
effect on thresholds for myoclonic twitch, generalized clonus and forelimb tonus ([8]; 14-day treatment i.p.): significantly increased the thresholds
effect on thresholds for myoclonic twitch, generalized clonus and forelimb tonus ([8]; single administration i.p.): significantly increased the thresholds
effect on current intensity necessary to induce psychomotor seizures ([10]; 14-day administration i.p.): marked increase
effect on current intensity necessary to induce psychomotor seizures ([10]; single administration i.p.): marked increase

SMILES: COc1cccc2c1C(=O)c1c(O)c3c(c(O)c1C2=O)C[C@@](O)(C(=O)CO)C[C@@H]3O[C@H]1C[C@H](N)[C@H](O)[C@H](C)O1 [doxorubicin]
IC50 [12]: 0.3 µM
toxicity to HepG2 cells ([13]; 1 μM, 72 h): highly toxic
IC50 ([13]; Homo sapiens, HepG2, 72 h of incubation): 1.91 µM
